In one experiment the target is T1, JAK2 (Mus musculus, UniProt Q62120).
T1 construct: endogenous in cells; host or cells: BAF3
As to the kind of experiment: JAKs cell activity test: JAK2_pSTAT5 in IL-3-induced BAF3 cells. It is filed as cell-based. The settings on record: pSTAT5, IL-3-induced BAF3 cells. The procedure:
(§1) THP1 cells were collected by centrifugation, resuspended with 1×HBSS, counted and diluted to a certain cell density. They were inoculated in a 384-well plate and cultured in a saturated humidity incubator with 37 °C and 5% CO2. The compound (DMSO final volume of 0.3%) was added to THP1 cells (10 doses in duplicates) and cultured in a saturated humidity incubator with 37 °C and 5% CO2. hIL-4 was added to stimulate cells and cultured in a saturated humidity incubator with 37 °C and 5% CO2. The lysis solution was added and incubated at room temperature. According to the instructions of AlphaLISA SureFire Ultra p-STAT6 detection kit, the lysis solution was transferred to pSTAT6 detection system, and the ALPHA signal was read by PE Envision microplate reader. The inhibition rate Inh%=((DMSO-sample)/(DMSO-background))×100 was calculated. IC50 was obtained by fitting with GraphPad Prism non-linear regression equation, and y=Bottom+(Top-Bottom)/(1+10^((LogIC50-x)×hillslope)), where x was the concentration of the compound and y was the inhibition rate.
(§2) JAK2_pSTAT5 was tesed in IL-3-induced BAF3 cells according to the above steps, and JAK3_pSTAT5 was tested in IL-2-induced CTLL-2 cells (without serum stimulation) according to the above steps.

The target of the next experiment is T2, JAK3 (Mus musculus, UniProt Q62137).
T2 construct: endogenous in cells; host or cells: CTLL-2
T2 sequence (Q62137 1-1100): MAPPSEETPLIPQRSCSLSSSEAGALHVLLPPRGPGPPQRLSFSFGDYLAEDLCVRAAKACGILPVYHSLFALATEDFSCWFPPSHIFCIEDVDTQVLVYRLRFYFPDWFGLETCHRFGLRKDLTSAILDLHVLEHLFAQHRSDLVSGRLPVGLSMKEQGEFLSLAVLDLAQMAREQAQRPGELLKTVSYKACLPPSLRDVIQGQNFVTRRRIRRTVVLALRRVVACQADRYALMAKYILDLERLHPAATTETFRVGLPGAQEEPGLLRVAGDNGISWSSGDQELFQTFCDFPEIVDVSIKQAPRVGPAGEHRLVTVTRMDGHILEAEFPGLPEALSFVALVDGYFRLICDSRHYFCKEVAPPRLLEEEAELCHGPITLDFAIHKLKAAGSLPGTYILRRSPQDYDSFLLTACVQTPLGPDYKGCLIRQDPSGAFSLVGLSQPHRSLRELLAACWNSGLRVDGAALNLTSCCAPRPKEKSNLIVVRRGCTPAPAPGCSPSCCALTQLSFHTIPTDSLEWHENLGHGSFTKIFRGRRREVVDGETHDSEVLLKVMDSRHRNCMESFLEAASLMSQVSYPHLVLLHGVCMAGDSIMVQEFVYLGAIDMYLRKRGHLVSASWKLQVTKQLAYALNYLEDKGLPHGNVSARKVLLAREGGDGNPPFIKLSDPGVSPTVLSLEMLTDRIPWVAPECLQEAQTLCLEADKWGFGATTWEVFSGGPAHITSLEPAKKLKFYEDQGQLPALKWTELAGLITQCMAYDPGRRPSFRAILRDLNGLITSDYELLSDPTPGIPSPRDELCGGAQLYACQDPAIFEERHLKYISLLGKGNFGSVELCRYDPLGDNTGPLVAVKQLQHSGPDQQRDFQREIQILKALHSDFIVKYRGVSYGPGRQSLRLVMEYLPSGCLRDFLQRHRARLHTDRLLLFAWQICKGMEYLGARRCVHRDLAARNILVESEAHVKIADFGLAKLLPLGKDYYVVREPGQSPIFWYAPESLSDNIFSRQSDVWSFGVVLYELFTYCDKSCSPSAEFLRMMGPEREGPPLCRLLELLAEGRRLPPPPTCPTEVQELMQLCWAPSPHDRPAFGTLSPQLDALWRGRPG
As to the kind of experiment: JAKs cell activity test: JAK3_pSTAT5 in IL-2-induced CTLL-2 cells. Conditions: pSTAT5, IL-2-induced CTLL-2 cells. It is filed as cell-based. As to the method: as §1, §2

In another experiment the target is CDK7 (Homo sapiens, UniProt P50613). As to the kind of experiment: experiment of inhibiting kinase activity (Caliper mobility shift assay), CDK7. It is filed as biochemical. Conditions: read-out: inhibition rate CDK7; for inhibition at 0.1 µM: at 100 nM. The essentials: (§3)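 Mobility-shift readout of substrate conversion; % inhibition normalized to uninhibited-enzyme wells (0%) and buffer-only background wells. Dosing: single points at 10 and 100 nM, or 3-fold series from 10 µM (10 conc.), replicates. Kinase + compound 10 min RT, then ATP/substrate.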

For the next experiment, the target named is CDK9 (Homo sapiens, UniProt P50750). As to the kind of experiment: experiment of inhibiting kinase activity (Caliper mobility shift assay), CDK9. It is filed as biochemical. A digest of the protocol: as §3

Results on 3 compounds are retold here after EP4592286A1, “MACROCYCLIC NITROGEN-CONTAINING CROWN ETHER COMPOUND AND USE THEREOF AS PROTEIN KINASE INHIBITOR” (Artivila Biopharma, priority 2022, dated 2024).

CDK7, sequence (P50613 whole entry, species assumed): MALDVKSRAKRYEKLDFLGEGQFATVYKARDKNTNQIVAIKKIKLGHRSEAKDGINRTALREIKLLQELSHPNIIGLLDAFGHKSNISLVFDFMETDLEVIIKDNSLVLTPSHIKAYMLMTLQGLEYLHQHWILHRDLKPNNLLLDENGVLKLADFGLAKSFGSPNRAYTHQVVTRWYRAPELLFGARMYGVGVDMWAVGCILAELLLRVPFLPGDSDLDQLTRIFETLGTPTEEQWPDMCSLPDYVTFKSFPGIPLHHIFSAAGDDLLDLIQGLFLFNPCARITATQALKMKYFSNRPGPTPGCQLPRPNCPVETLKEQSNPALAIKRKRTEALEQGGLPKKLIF
CDK7, sequence (P51946 whole entry partner, species assumed): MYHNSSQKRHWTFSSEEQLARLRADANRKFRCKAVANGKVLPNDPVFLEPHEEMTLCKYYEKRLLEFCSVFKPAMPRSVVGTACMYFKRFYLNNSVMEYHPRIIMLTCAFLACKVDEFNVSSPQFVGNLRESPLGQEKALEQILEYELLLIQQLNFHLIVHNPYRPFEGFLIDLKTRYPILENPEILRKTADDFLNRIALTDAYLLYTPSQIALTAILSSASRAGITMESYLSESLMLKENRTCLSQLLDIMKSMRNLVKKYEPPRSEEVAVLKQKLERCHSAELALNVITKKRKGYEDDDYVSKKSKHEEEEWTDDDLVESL
CDK7, sequence (P51948 whole entry partner, species assumed): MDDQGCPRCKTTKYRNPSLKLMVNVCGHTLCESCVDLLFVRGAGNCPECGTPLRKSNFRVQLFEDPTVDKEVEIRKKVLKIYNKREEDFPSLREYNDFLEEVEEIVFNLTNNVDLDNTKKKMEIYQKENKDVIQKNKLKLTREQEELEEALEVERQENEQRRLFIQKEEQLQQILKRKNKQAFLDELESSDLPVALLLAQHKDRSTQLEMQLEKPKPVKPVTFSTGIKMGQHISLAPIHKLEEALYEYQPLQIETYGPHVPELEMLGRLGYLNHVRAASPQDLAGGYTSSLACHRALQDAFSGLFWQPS
CDK9, sequence (P50750 whole entry): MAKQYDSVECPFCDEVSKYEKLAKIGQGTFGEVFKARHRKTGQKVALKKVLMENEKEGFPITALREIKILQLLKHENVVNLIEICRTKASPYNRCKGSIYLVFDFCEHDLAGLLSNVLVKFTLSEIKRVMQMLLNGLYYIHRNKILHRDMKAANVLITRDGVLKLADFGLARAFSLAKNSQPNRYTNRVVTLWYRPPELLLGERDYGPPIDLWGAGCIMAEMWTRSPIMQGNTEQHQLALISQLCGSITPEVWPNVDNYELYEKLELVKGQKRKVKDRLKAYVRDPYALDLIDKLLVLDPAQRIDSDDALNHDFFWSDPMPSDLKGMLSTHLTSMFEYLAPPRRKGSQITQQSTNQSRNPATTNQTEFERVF
CDK9, sequence (O60563 whole entry partner): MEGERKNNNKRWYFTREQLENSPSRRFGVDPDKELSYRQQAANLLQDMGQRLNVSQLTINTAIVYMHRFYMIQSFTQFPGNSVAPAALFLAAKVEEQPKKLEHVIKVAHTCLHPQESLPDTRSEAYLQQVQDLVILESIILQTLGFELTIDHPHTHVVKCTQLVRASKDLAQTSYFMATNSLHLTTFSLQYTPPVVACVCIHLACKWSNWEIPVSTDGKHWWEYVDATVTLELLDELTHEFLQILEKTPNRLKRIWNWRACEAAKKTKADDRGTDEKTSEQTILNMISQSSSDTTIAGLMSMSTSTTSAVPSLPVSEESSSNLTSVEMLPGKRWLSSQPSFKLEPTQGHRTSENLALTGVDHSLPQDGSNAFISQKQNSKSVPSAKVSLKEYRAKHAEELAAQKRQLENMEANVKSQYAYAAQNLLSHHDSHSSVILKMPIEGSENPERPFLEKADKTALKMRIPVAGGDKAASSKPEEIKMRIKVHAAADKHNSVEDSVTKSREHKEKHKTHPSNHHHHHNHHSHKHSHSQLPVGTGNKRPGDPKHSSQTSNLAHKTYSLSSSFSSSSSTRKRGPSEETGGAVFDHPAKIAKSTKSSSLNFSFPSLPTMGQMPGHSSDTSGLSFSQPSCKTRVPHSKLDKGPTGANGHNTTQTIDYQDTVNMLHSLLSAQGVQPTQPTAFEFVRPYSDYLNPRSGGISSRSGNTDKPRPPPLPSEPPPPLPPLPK
T1 sequence (Q62120 whole entry): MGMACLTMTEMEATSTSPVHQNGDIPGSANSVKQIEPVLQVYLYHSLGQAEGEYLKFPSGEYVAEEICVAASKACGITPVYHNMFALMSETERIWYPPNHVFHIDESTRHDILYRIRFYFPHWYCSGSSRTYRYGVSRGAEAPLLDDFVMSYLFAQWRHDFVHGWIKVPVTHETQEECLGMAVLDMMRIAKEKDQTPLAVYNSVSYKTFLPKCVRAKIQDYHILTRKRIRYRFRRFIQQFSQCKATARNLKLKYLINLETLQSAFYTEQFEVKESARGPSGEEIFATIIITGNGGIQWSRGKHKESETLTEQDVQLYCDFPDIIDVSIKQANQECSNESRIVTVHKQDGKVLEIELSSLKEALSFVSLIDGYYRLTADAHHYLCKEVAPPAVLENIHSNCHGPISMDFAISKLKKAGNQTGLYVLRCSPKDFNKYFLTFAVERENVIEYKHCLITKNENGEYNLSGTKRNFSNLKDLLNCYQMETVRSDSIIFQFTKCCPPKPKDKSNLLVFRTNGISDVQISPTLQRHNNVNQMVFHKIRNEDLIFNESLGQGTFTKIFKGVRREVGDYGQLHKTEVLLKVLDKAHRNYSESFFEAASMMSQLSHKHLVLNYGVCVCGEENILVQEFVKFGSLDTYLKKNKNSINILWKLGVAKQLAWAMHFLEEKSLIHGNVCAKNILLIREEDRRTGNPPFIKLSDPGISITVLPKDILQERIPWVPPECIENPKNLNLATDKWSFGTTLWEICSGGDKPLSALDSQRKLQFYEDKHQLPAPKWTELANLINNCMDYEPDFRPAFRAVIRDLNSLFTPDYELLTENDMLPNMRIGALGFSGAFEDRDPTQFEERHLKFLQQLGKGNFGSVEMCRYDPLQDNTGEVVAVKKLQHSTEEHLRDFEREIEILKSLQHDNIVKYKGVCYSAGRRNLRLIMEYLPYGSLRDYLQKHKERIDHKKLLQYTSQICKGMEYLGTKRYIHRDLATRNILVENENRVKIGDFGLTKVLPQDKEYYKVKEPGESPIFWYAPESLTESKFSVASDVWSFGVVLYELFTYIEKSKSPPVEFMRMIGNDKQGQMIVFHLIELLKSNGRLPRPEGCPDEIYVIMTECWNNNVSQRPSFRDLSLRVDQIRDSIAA

`CN1CCOCCOc2cc(Nc3nc(-c4cnn(C(CC#N)C5CCCC5)c4)c4cc[nH]c4n3)ccc2OCC1` (stereo not drawn) [Example 26, 3-cyclopentyl-3-(4-(2-((7-methyl-2,3,6,7,8,9-hexahydro-5H-benzo[b][1,4,7]trioxa[10]azacyclododecan-13-yl)amino)-7H-pyrrolo[2,3-d]pytimidin-4-yl)-1H-pyrazol-1-yl)propionitrile]: the EC50 at JAK2 and at JAK3 was 0.5 to 5 µM in each case. For the same compound, the inhibition at 0.1 µM at CDK7 fell in the range of 40 to 79%.

On to `CN1CCOCCOc2cc(Nc3ncc(F)c(-c4ccc(C(=O)NCC#N)cc4)n3)ccc2OCC1` [Example 16, N-(cyanomethyl)-4-(5-fluoro-2-((7-methyl-2,3,6,7,8,9-hexahydro-5H-benzo[b][1,4,7]trioxa[10]azacyclododecan-13-yl)amino)pyrimidin-4-yl)benzamide], for which the inhibition at 0.01 µM was in the range of 25 to 39% at CDK7 (at 10 nM) and 40 to 79% on CDK9 (at 10 nM, read-out: inhibition rate CDK9). For the same compound, the inhibition at 0.1 µM at CDK7 is more than 80%; at CDK9 (at 100 nM, read-out: inhibition rate CDK9) it was more than 80%. On CDK9 (kinase activity assay, Table 3), the IC50 was less than 0.05 µM.

Consider `CCS(=O)(=O)N1CC(CC#N)(n2cc(-c3nc(Nc4ccc5c(c4)OCCN(C)CCO5)nc4[nH]ccc34)cn2)C1` [Example 28, 2-(1-(ethylsulfonyl)-3-(4-(2-((4-methyl-3,4,5,6-tetrahydro-2H-benzo[b][1,4,7]dioxazolin-9-yl)amino)-7H-pyrrolo[2,3-d]pytimidin-4-yl)-1H-pyrazol-1-yl)azetidin-3-yl) acetonitrile], for which the EC50 on JAK3 was less than 0.05 µM.

One may read the EC50 as the concentration needed to bring the measured effect to its halfway point. Read a high EC50 as a less potent agent. The term inhibition denotes the drop in the measured response relative to a control, in per cent. The term IC50 denotes the concentration at which inhibition is half-maximal.
